In brackets after ≈: the same amount, converted by molar mass. Activity calls are given as the source filed them. The calls are words filed in the database; no cut-off is given here.
Tests used:
Staphylococcus aureus [1] = conditions: MTCC 96
Description: Antimicrobial activity against Staphylococcus aureus MTCC 96 after 24 hr by two-fold serial dilution method

Candida albicans [2] = test: Antimicrobial activity against Candida albicans MTCC 227 at 2 mg/ml by two-fold serial dilution method; assay type: functional
Candida albicans [3] = test: Antimicrobial activity against Candida albicans MTCC 227 at 2 mg/ml by agar well diffusion method; assay type: functional; conditions: read-out: DIZ
Bacillus subtilis [4] = conditions: MTCC 121
Description: Antimicrobial activity against Bacillus subtilis MTCC 121 at 2 mg/ml after 24 hr by agar well diffusion method

Staphylococcus aureus [5] = conditions: MTCC 96; remark: listed apart in the source
Description: Antimicrobial activity against Staphylococcus aureus MTCC 96 at 2 mg/ml after 24 hr by agar well diffusion method

Escherichia coli = test: Antimicrobial activity against Escherichia coli MTCC 1652 at 2 mg/ml after 24 hr by agar well diffusion method; assay type: functional, organism-based
Pseudomonas aeruginosa = test: Antimicrobial activity against Pseudomonas aeruginosa MTCC 741 at 2 mg/ml after 24 hr by agar well diffusion method; assay type: functional, organism-based
Saccharomyces cerevisiae [6] = test: Antimicrobial activity against Saccharomyces cerevisiae MTCC 170 at 2 mg/ml after 24 hr by agar well diffusion method; assay type: functional; conditions: MTCC 170, 24 h, read-out: DIZ
Saccharomyces cerevisiae [7] = test: Antimicrobial activity against Saccharomyces cerevisiae MTCC 170 after 24 hr by two-fold serial dilution method; assay type: functional; conditions: MTCC 170, 24 h
Bacillus subtilis [8] = conditions: MTCC 121; remark: listed apart in the source
Description: Antimicrobial activity against Bacillus subtilis MTCC 121 at 2 mg/ml after 24 hr by two-fold serial dilution method

## CCOC1Sc2nnc(CC)n2N=C1c1ccc(Cl)cc1 (stereo not given)
Staphylococcus aureus [1]
  MIC: inactive
Candida albicans [2]
  MIC: 64 µg/mL (≈ 198 µM)
Candida albicans [3]
  zone of inhibition at 2000 µg/mL: 15.6 mm
Bacillus subtilis [4]
  DIZ: inactive
Staphylococcus aureus [5]
  DIZ: inactive
Escherichia coli
  Activity: inactive
Pseudomonas aeruginosa
  Activity: inactive
Saccharomyces cerevisiae [6]
  zone of inhibition at 2000 µg/mL: 18.3 mm
Saccharomyces cerevisiae [7]
  MIC: 32 µg/mL (≈ 99.1 µM)
Bacillus subtilis [8]
  MIC: inactive

Source: ChEMBL document CHEMBL3046925, “,-Dibromoacetophenones mediated synthesis of some new 7H-7-alkoxy-3-alkyl/phenyl-6-aryl-s-triazolo[3,4-b][1,3,4]thiadiazines and their antimicrobial evaluation” (2012)
